Results: patent publication US20160158200A1, “Combinations of Hepatitis C Virus Inhibitors” (priority 2013, published 2016)

System: HCV genotype-1a variant with glutamine 30 changed to glutamate in the NS5A protein
Format: cell-based
Conditions: test compound titrated with BMS-790052 fixed at 200 nM; genotype 1a Q30E replicon
Procedure, shortened: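 Synergy was assessed by combining several fixed amounts of an NS5A-targeting compound with a titration of the second compound of interest.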

Compound	Fold-Synergistic 1a (Q30E) [fold]
CC(C)(C)C(NC(=O)C1COC(=O)N1)c1nc(-c2ccc(-c3ccc(-c4c[nH]c(C(NC(=O)C5COC(=O)N5)C(C)(C)C)n4)cc3)cc2)c[nH]1.O=C(O)C(F)(F)F.O=C(O)C(F)(F)F [Compound L-9]	>10
CC(C)(C)[C@H](NC(=O)[C@@H]1CCC(=O)N1)c1nc(-c2ccc(-c3ccc(-c4c[nH]c([C@@H](NC(=O)[C@@H]5CCC(=O)N5)C(C)(C)C)n4)cc3)cc2)c[nH]1.O=C(O)C(F)(F)F.O=C(O)C(F)(F)F [Compound L-10]	>10
CC(=O)N(C)C1(C(=O)N[C@H](c2nc(-c3ccc(-c4ccc(-c5c[nH]c([C@@H](NC(=O)C6(N(C)C(C)=O)CC6)C(C)(C)C)n5)cc4)cc3)c[nH]2)C(C)(C)C)CC1.O=C(O)C(F)(F)F.O=C(O)C(F)(F)F [Compound L-11]	>100
CC(=O)N(C)C1(C(=O)N[C@H](c2nc(-c3ccc(-c4ccc(-c5c[nH]c([C@@H](NC(=O)C6(N(C)C(C)=O)CCC6)C(C)(C)C)n5)cc4)cc3)c[nH]2)C(C)(C)C)CCC1.O=C(O)C(F)(F)F.O=C(O)C(F)(F)F [Compound L-12]	>100
CN(C(=O)OC(C)(C)C)C1(C(=O)N[C@H](c2nc(-c3ccc(-c4ccc(-c5c[nH]c([C@@H](NC(=O)C6(N(C)C(=O)OC(C)(C)C)CC6)C(C)(C)C)n5)cc4)cc3)c[nH]2)C(C)(C)C)CC1.O=C(O)C(F)(F)F.O=C(O)C(F)(F)F [Compound L-13]	>100
CN(C(=O)OC(C)(C)C)C1(C(=O)N[C@H](c2nc(-c3ccc(-c4ccc(-c5c[nH]c([C@@H](NC(=O)C6(N(C)C(=O)OC(C)(C)C)CCC6)C(C)(C)C)n5)cc4)cc3)c[nH]2)C(C)(C)C)CCC1.O=C(O)C(F)(F)F.O=C(O)C(F)(F)F [Compound L-14]	>100
CC(C)(C)OC(=O)N1CCCC[C@@H]1C(=O)N[C@H](c1nc(-c2ccc(-c3ccc(-c4c[nH]c([C@@H](NC(=O)[C@H]5CCCCN5C(=O)OC(C)(C)C)C(C)(C)C)n4)cc3)cc2)c[nH]1)C(C)(C)C [Compound L-16]	>100
CC(C)(C)OC(=O)N1CCCC[C@H]1C(=O)N[C@H](c1nc(-c2ccc(-c3ccc(-c4c[nH]c([C@@H](NC(=O)[C@@H]5CCCCN5C(=O)OC(C)(C)C)C(C)(C)C)n4)cc3)cc2)c[nH]1)C(C)(C)C [Compound L-17]	>100
COC(=O)N(C)C(C)(C)C(=O)N[C@H](c1nc(-c2ccc(-c3ccc(-c4c[nH]c([C@@H](NC(=O)C(C)(C)N(C)C(=O)OC)C(C)(C)C)n4)cc3)cc2)c[nH]1)C(C)(C)C [Compound L-18]	>100
COC(=O)N(C)C1(C(=O)N[C@H](c2nc(-c3ccc(-c4ccc(-c5c[nH]c([C@@H](NC(=O)C6(N(C)C(=O)OC)CC6)C(C)(C)C)n5)cc4)cc3)c[nH]2)C(C)(C)C)CC1.O=C(O)C(F)(F)F.O=C(O)C(F)(F)F [Compound L-19]	>100
CN(C(=O)OCCF)C(C)(C)C(=O)N[C@H](c1nc(-c2ccc(-c3ccc(-c4c[nH]c([C@@H](NC(=O)C(C)(C)N(C)C(=O)OCCF)C(C)(C)C)n4)cc3)cc2)c[nH]1)C(C)(C)C [Compound L-20]	>100
CC(C)(C)OC(=O)N1CCC(F)(F)C[C@H]1C(=O)N[C@H](c1nc(-c2ccc(-c3ccc(-c4c[nH]c([C@@H](NC(=O)[C@@H]5CC(F)(F)CCN5C(=O)OC(C)(C)C)C(C)(C)C)n4)cc3)cc2)c[nH]1)C(C)(C)C [Compound L-21]	>100
COC(=O)N(C)C1(C(=O)N[C@H](c2nc(-c3ccc(-c4ccc(-c5c[nH]c([C@@H](NC(=O)C6(N(C)C(=O)OC)CC6)C6CC6)n5)cc4)cc3)c[nH]2)C2CC2)CC1 [Compound L-34]	>100
CCN(CC(F)(F)F)C(=O)C(=O)NC(c1nc(-c2ccc(-c3ccc(-c4c[nH]c(C(NC(=O)C(=O)N(CC)CC(F)(F)F)C5CC5)n4)cc3)cc2)c[nH]1)C1CC1 [Compound L-35]	>100
CC(C)N(C(=O)C(=O)NC(c1nc(-c2ccc(-c3ccc(-c4c[nH]c(C(NC(=O)C(=O)N(C(C)C)C5CC5)C5CC5)n4)cc3)cc2)c[nH]1)C1CC1)C1CC1 [Compound L-36]	>100
O=C(NC(c1nc(-c2ccc(-c3ccc(-c4c[nH]c(C(NC(=O)C(=O)N5CCC(F)(F)CC5)C5CC5)n4)cc3)cc2)c[nH]1)C1CC1)C(=O)N1CCC(F)(F)CC1 [Compound L-37]	>100
COC(=O)N(C)CC1(C(=O)N[C@H](c2nc(-c3ccc(-c4ccc(-c5c[nH]c([C@@H](NC(=O)C6(CN(C)C(=O)OC)CC6)C(C)(C)C)n5)cc4)cc3)c[nH]2)C(C)(C)C)CC1 [Compound L-41]	>100
CC(OC(=O)NC1(C(=O)NC(c2nc(-c3ccc(-c4ccc(-c5c[nH]c(C(NC(=O)C6(NC(=O)OC(C)C(F)(F)F)CC6)C6(C)CC6)n5)cc4)cc3)c[nH]2)C2(C)CC2)CC1)C(F)(F)F [Compound L-42]	>100
CC1(C(=O)N[C@H](c2nc(-c3ccc(-c4ccc(-c5c[nH]c([C@@H](NC(=O)C6(C)CC6)C(C)(C)C)n5)cc4)cc3)c[nH]2)C(C)(C)C)CC1 [Compound L-45]	>100
CC(C)(C)OC(=O)NC1(C(=O)NC(c2nc(-c3ccc(-c4ccc(-c5c[nH]c(C(NC(=O)C6(NC(=O)OC(C)(C)C)CCC(F)(F)CC6)C(C)(C)C)n5)cc4)cc3)c[nH]2)C(C)(C)C)CCC(F)(F)CC1 [Compound L-49]	>100
CC(C)(NCC(F)(F)F)C(=O)NC(c1nc(-c2ccc(-c3ccc(-c4c[nH]c(C(NC(=O)C(C)(C)NCC(F)(F)F)C(C)(C)C)n4)cc3)cc2)c[nH]1)C(C)(C)C [Compound L-50]	>100
CC(C)(C)C(NC(=O)C1CCCCN1CC(F)(F)F)c1nc(-c2ccc(-c3ccc(-c4c[nH]c(C(NC(=O)C5CCCCN5CC(F)(F)F)C(C)(C)C)n4)cc3)cc2)c[nH]1 [Compound L-51]	>100
CC(C)(C)C(NC(=O)C1CCCN1CC(F)(F)F)c1nc(-c2ccc(-c3ccc(-c4c[nH]c(C(NC(=O)C5CCCN5CC(F)(F)F)C(C)(C)C)n4)cc3)cc2)c[nH]1 [Compound L-52]	>100
CC1(C)CC(C(=O)NC(c2nc(-c3ccc(-c4ccc(-c5c[nH]c(C(NC(=O)C6CC(C)(C)C6)C(C)(C)C)n5)cc4)cc3)c[nH]2)C(C)(C)C)C1 [Compound L-53]	>100
COC1CC(C(=O)NC(c2nc(-c3ccc(-c4ccc(-c5c[nH]c(C(NC(=O)C6CC(OC)C6)C(C)(C)C)n5)cc4)cc3)c[nH]2)C(C)(C)C)C1 [Compound L-54]	>100
CC(C)(C)OC(=O)N1C(C(=O)NC(c2nc(-c3ccc(-c4ccc(-c5c[nH]c(C(NC(=O)C6COC(C)(C)N6C(=O)OC(C)(C)C)C(C)(C)C)n5)cc4)cc3)c[nH]2)C(C)(C)C)COC1(C)C [Compound L-55]	>100
CC(C)(CO)C(=O)NC(c1nc(-c2ccc(-c3ccc(-c4c[nH]c(C(NC(=O)C(C)(C)CO)C(C)(C)C)n4)cc3)cc2)c[nH]1)C(C)(C)C [Compound L-56]	>100
CC(C)(C)OC(=O)N1CC2(CC(C(=O)NC(c3nc(-c4ccc(-c5ccc(-c6c[nH]c(C(NC(=O)C7CC8(C7)CN(C(=O)OC(C)(C)C)C8)C(C)(C)C)n6)cc5)cc4)c[nH]3)C(C)(C)C)C2)C1 [Compound L-57]	>100
